Data: patent publication US20250257034A1, “INDOLE DERIVATIVES AS SEROTONERGIC AGENTS USEFUL FOR THE TREATMENT OF DISORDERS RELATED THERETO” (priority 2023, published 2025)
“And” between values parts separate entries of the source, which are not always exact repeats. Identical values can stand only once. Like-named read-outs stand apart in the source and are kept apart here.

Assays:
[1] = Mouse liver microsomes stability; assay type: in vitro ADME; conditions: Mouse liver microsomes; for microsomal CLint at 2 μM / half-life at 2 μM / CLint scaled at 2 μM: male; for microsomal CLint at 2 μM: mouse, liver microsomes, read-out: CLint (μL/min/mg protein); for microsomal CLint at 2 μM / half-life at 2 μM: 2 μM compound, 0.5 mg/mL microsomes, 1 mM NADPH; for half-life at 2 μM: 37° C; for CLint scaled at 2 μM: read-out: Scaled-up CLint
[2] = Human liver microsomes stability; assay type: in vitro ADME; conditions: Human liver microsomes; for half-life at 2 μM / microsomal CLint at 2 μM: 2 μM compound, 0.5 mg/mL microsomes, 1 mM NADPH; for half-life at 2 μM: 37° C; for microsomal CLint at 2 μM: read-out: CLint (μL/min/mg protein); for CLint scaled at 2 μM: read-out: Scaled-up CLint
In short: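 In this assay, 2 μM compound is incubated with NADPH-supplemented liver microsomes (human pooled; male rat; male mouse) at 37° C for up to 60 min. Depletion is followed by LC-MS/MS, and CLint is expressed per mg microsomal protein.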

[3] = Pharmacokinetic studies in rat (i.v.); assay type: in vivo; conditions: rat plasma; for Apparent t1/2 / half-life: estimated from 2 points only; for concentration at 0.25 h / concentration at 1 h / half-life / AUC(0-t) / concentration at 4 h: male, Sprague-Dawley, rat, plasma, iv; for concentration at 0.25 h / concentration at 1 h / concentration at 4 h: read-out: Plasma concentration; for half-life: read-out: Apparent t1/2 (converted); for AUC(0-t): read-out: AUC0-tlast
Description: Animals: Male Sprague-Dawley rats (˜225-350 g) from Charles River Labs were acclimatized for a minimum of 5 days prior to start of study procedures. Body weights were recorded on the day of dosing.
Any abnormalities were documented including presence/absence of wet dog shakes/back muscle contractions (WDS/BMC).
Dosing: Formulations were administered intravenously (i.v.) via the tail vein using a 25 G needle connected to a 1 cc syringe.
The Compounds of Formula (I) were freshly prepared at the appropriate concentrations in 5% Tween-80 in saline.
Blood collection time (h): 0.25, 1 and 4.
Volume/time-point: ˜0.25 mL […] (saphenous vein).
Instrumentation: AB Sciex QTRAP 4000 or 6500 MS/MS system equipped with an LC system with a binary pump, a solvent degasser, a thermostatted column compartment and a multiplate autosampler.
Analysis software: Phoenix® WinNonlin® 8.3 (Pharsight, Certara, Mountainview, CA).
Analysis methods: non-compartmental analysis, linear up/log down trapezoidal rule.
PK parameters: t1/2 and AUC0-tlast were be estimated.
Volume/time-point: ˜0.25 mL (saphenous vein).
PK parameters: t1/2 and AUC0-tlast were estimated.

[4] = I-1 1.10 mg/kg i.v., individual rats R04-R06, 1.1 mg/kg
[5] = 1.1 mg/kg, I-1 1.10 mg/kg i.v., Mean ± SD
[6] = 1.1 mg/kg, I-1 1.10 mg/kg i.v., individual rats R04-R06
[7] = I-19 1.2 mg/kg i.v., individual rats R07-R09, 1.2 mg/kg
[8] = 1.2 mg/kg, I-19 1.2 mg/kg i.v., individual rats R07-R09

[2H]C([2H])([2H])N(CCc1c[nH]c2ccc(SC)cc12)C([2H])([2H])[2H] [Compound I-1, N,N-Bis(methyl-d3)-2-(5-(methylthio)-1H-indol-3-yl)ethan-1-amine]
Predicted hepatic CL [1]: 81.96 mL/min/kg | microsomal CLint at 2 μM [1]: 210 µL/min/mg | half-life at 2 μM [1]: 6.61 min | CLint scaled at 2 μM [1]: 918 mL/min/kg | Predicted hepatic CL [2]: 19.31 mL/min/kg | half-life at 2 μM [2]: 6.04 min | microsomal CLint at 2 μM [2]: 230 µL/min/mg | CLint scaled at 2 μM [2]: 288 mL/min/kg | Plasma concentration ([3]; I-1 1.10 mg/kg i.v., 0.25 h, individual rats R04-R06, 1.1 mg/kg): 15.7 ng/mL and 16.9 ng/mL | Plasma concentration ([3]; I-1 1.10 mg/kg i.v., 1 h, individual rats R04-R06, 1.1 mg/kg): 0.835 ng/mL and 0.354 ng/mL and 0.298 ng/mL | Plasma concentration (ng/mL) ([3]; I-1 1.10 mg/kg i.v., 4 h, individual rats R04-R06): BLQ (BLQ denotes below the lower limit of quantitation (0.5 ng/mL)) | AUC0-tlast [3, 4]: 10.9 ng·h/mL and 12.0 ng·h/mL | Apparent t1/2 [3, 4]: 8.22 min and 7.74 min | concentration at 0.25 h ([3]; 1.1 mg/kg, I-1 1.10 mg/kg i.v., 0.25 h, Mean ± SD): 16.4 ± 0.624 ng/mL | concentration at 0.25 h ([3]; 1.1 mg/kg, I-1 1.10 mg/kg i.v., 0.25 h, individual rats R04-R06): 16.6 ng/mL | concentration at 1 h ([3]; 1.1 mg/kg, I-1 1.10 mg/kg i.v., 1 h, Mean ± SD): 0.496 ± 0.295 ng/mL | half-life [3, 5]: 8.82 ± 1.44 min | AUC(0-t) [3, 5]: 11.3 ± 0.587 ng·h/mL | half-life [3, 6]: 10.4 min | AUC(0-t) [3, 6]: 11.1 ng·h/mL

CSc1ccc2[nH]cc(CCN(C)C(C)C)c2c1 [Compound I-19, N-Methyl-N-(2-(5-(methylthio)-1H-indol-3-yl)ethyl)propan-2-amine]
Predicted hepatic CL [1]: 78.36 mL/min/kg | microsomal CLint at 2 μM [1]: 138 µL/min/mg | half-life at 2 μM [1]: 10 min | CLint scaled at 2 μM [1]: 606 mL/min/kg | Predicted hepatic CL [2]: 16.93 mL/min/kg | half-life at 2 μM [2]: 18.7 min | microsomal CLint at 2 μM [2]: 74.1 µL/min/mg | CLint scaled at 2 μM [2]: 92.9 mL/min/kg | Plasma concentration ([3]; I-19 1.2 mg/kg i.v., 0.25 h, individual rats R07-R09, 1.2 mg/kg): 13.4 ng/mL and 70.3 ng/mL and 84.4 ng/mL | Plasma concentration ([3]; I-19 1.2 mg/kg i.v., 1 h, individual rats R07-R09, 1.2 mg/kg): 34.4 ng/mL and 41.4 ng/mL | Plasma concentration ([3]; I-19 1.2 mg/kg i.v., 4 h, individual rats R07-R09, 1.2 mg/kg): 4.95 ng/mL and 4.34 ng/mL | AUC0-tlast [3, 7]: 103 ng·h/mL and 118 ng·h/mL | Apparent t1/2 [3, 7]: 53.3 min | concentration at 0.25 h ([3]; 1.2 mg/kg, I-19 1.2 mg/kg i.v., 0.25 h, Mean ± SD): 56 ± 37.6 ng/mL | concentration at 1 h ([3]; 1.2 mg/kg, I-19 1.2 mg/kg i.v., 1 h, Mean ± SD): 35.4 ± 5.57 ng/mL | concentration at 1 h ([3]; 1.2 mg/kg, I-19 1.2 mg/kg i.v., 1 h, individual rats R07-R09): 30.4 ng/mL | concentration at 4 h ([3]; 1.2 mg/kg, I-19 1.2 mg/kg i.v., 4 h, Mean ± SD): 5.35 ± 1.26 ng/mL | concentration at 4 h ([3]; 1.2 mg/kg, I-19 1.2 mg/kg i.v., 4 h, individual rats R07-R09): 6.76 ng/mL | AUC(0-t) ([3]; 1.2 mg/kg, I-19 1.2 mg/kg i.v., Mean ± SD): 96.1 ± 26.4 ng·h/mL | half-life [3, 8]: 60 min | AUC(0-t) [3, 8]: 66.9 ng·h/mL | half-life ([3]; 1.2 mg/kg, I-19 1.2 mg/kg i.v., mean (n = 2)): 56.8 min
